For experiment [1], the target named is Sigma non-opioid intracellular receptor 1 (Rattus norvegicus, UniProt Q9R0C9). Nature of the experiment: Binding affinity towards sigma receptor binding site 1 using [3H](+)-pentazocine.
Experiment [2] addresses Sigma non-opioid intracellular receptor 1 (Rattus norvegicus) (UniProt Q9R0C9). Briefly: Ratio of the binding affinities for sigma-1 and sigma 2 type receptors, ratio of IC50.
For experiment [3], the target named is Sigma 2 receptor. Briefly: Binding affinity towards sigma receptor binding site 2 using [3H]DTG of whole rat brain homogenates except cerebellum. The class given is tissue-based.
The target of experiment [4] is 5-hydroxytryptamine receptor 2A (Rattus norvegicus, UniProt P14842). Nature of the experiment: Binding affinity towards 5-hydroxytryptamine 2A receptor binding site using [3H]ketanserin.
Experiment [5] concerns the target T1, Adrenergic receptor alpha-1 (Rattus norvegicus, UniProt P15823+P23944+P43140).
T1 sequence (P15823 whole entry): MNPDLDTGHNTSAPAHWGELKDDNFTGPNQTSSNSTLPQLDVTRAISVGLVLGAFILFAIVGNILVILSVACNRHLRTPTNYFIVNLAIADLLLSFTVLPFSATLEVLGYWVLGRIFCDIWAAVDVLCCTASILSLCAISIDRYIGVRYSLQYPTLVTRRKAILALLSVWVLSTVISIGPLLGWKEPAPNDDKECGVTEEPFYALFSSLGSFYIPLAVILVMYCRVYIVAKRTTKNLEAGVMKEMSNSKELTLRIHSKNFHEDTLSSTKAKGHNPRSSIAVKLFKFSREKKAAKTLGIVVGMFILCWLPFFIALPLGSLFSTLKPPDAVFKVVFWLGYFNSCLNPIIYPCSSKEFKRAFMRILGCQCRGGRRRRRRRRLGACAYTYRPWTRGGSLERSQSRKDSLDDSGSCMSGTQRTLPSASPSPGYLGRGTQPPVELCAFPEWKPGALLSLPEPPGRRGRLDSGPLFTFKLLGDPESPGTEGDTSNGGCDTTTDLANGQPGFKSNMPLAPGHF
T1 sequence (P23944 whole entry): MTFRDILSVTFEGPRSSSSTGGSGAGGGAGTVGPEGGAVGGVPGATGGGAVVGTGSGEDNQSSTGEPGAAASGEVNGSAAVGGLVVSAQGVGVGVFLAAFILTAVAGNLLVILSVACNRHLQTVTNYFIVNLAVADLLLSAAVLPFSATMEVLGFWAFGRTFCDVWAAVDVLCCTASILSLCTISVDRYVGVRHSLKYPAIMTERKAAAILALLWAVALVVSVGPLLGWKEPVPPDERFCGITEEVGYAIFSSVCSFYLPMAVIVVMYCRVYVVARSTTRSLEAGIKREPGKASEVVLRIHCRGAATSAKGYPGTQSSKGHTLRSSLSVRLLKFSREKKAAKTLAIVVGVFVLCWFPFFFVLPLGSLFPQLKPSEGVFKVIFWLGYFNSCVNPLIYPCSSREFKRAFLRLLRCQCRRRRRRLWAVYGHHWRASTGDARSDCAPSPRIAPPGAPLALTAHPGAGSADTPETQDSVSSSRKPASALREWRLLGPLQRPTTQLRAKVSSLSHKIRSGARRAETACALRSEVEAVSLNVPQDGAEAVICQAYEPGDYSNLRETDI
T1 sequence (P43140 whole entry): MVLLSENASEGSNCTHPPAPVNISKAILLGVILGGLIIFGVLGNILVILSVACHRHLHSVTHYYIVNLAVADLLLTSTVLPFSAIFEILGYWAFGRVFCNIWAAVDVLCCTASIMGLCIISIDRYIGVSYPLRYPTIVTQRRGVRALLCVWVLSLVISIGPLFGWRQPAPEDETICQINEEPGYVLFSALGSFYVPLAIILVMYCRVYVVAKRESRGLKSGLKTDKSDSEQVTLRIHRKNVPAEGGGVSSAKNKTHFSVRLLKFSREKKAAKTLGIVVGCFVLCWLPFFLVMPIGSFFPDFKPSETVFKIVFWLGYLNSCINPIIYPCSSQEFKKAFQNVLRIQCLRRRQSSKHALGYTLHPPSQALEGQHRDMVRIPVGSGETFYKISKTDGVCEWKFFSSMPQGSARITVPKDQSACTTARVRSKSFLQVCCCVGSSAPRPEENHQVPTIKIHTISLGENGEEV
Nature of the experiment: Binding affinity towards Alpha-1 adrenergic receptor binding site using [3H]prazosin. Format: protein assay.

Experiment [6] deals with T2, 5-hydroxytryptamine receptor 1A (Rattus norvegicus, UniProt P19327).
T2 sequence (P19327 whole entry): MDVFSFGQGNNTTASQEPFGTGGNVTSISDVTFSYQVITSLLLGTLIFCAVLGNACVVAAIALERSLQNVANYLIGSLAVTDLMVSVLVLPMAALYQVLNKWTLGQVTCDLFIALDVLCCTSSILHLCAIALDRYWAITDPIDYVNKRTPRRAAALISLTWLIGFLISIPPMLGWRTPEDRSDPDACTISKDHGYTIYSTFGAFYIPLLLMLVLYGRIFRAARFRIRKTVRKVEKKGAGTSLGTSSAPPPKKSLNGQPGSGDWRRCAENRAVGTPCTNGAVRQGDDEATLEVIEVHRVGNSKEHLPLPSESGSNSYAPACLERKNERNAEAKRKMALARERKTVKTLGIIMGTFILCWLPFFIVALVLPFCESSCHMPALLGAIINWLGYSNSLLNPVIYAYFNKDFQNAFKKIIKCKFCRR
Nature of the experiment: Binding affinity towards 5-hydroxytryptamine 1A receptor binding site using [3H]8-OH-DPAT.

Experiment [7] concerns the target D(2) dopamine receptor (Rattus norvegicus, UniProt P61169). Nature of the experiment: Binding affinity towards Dopamine receptor D2 binding site using [3H]spiroperidol.
For experiment [8], the target named is T1, Adrenergic receptor alpha-1. Nature of the experiment: Binding affinity for Alpha-1 adrenergic receptor with [3H]prazosin. The class given is protein assay.

In ChEMBL document CHEMBL1128738, “Sigma ligands with subnanomolar affinity and preference for the sigma 2 binding site. 1. 3-(omega-aminoalkyl)-1H-indoles” (J Med Chem, 1995) one finds IC50 and Ratio data, which are given here for 28 compounds.

5-hydroxytryptamine receptor 2A, sequence (P14842 whole entry): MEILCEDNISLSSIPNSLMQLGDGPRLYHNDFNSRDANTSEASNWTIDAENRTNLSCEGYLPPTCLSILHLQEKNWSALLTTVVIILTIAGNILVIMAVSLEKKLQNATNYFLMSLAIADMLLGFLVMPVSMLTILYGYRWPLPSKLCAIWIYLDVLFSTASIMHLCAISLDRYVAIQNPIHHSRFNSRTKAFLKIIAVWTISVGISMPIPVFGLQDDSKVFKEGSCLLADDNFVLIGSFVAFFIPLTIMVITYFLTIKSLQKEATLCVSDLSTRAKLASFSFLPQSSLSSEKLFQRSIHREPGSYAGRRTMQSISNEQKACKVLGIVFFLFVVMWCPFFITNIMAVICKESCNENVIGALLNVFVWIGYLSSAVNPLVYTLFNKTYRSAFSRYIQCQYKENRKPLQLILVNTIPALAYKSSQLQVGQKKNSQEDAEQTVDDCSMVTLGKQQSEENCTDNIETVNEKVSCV
D(2) dopamine receptor, sequence (P61169 whole entry): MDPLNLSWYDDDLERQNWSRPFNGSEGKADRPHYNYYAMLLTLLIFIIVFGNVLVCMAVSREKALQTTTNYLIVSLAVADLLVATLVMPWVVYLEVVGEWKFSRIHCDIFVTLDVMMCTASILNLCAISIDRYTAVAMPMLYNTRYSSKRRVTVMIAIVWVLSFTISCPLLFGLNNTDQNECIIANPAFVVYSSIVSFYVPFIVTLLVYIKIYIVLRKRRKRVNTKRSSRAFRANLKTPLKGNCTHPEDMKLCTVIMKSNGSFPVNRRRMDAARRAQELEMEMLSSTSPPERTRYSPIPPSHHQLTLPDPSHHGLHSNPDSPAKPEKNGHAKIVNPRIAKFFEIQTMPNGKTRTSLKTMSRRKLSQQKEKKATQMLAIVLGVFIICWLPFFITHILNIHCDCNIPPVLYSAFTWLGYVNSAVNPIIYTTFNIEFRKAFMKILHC
Sigma non-opioid intracellular receptor 1, sequence (Q9R0C9 whole entry): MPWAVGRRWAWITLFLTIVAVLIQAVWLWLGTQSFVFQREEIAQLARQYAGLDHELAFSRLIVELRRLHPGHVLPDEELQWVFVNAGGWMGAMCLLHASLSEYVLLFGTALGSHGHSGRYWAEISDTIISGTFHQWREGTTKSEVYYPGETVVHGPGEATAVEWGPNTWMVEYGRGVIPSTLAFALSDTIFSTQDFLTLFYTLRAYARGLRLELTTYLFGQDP
Sigma non-opioid intracellular receptor 1 (Rattus norvegicus), sequence (Q9R0C9 whole entry): as above

The IC50 is the point on the concentration scale where inhibition reaches its midpoint. A lower IC50 goes with higher potency. In the case of `c1ccc2c(c1)COC21CCN(CCCCc2cn(-c3ccncc3)c3ccccc23)CC1`, the half-maximal inhibitory concentration (IC50) was 14 nM in experiment [1] and 0.41 nM in experiment [3]. The Ratio in experiment [2] is 34.
On the same counts, the results for `c1ccc(Cn2cc(CCCCN3CCC4(CC3)OCc3ccccc34)c3ccccc32)cc1` are 5.2 nM, 0.48 nM and 11.
Consider `O=C(CC1CCN(CC2CC2)CC1)c1ccc(F)cc1`, for which the IC50 in experiment [4] came out at 66 nM; in experiment [5] it was 21 nM; in experiment [6] it was 44000 nM.
Turning to `Cn1cc(CCCCN2CCC3(CC2)OCc2ccccc23)c2ccccc21`, the half-inhibitory concentration (IC50) stood at 2.1 nM in experiment [1] and 0.3 nM in experiment [3]. The Ratio in experiment [2] is 7.
The matching figures for `c1ccc2c(c1)COC21CCN(CCCCc2cn(-c3nccs3)c3ccccc23)CC1`: 14 nM, 0.19 nM and 74.
Turning to `c1ccc(CN2CCC3(CCCc4ccccc43)CC2)cc1`, the half-maximal inhibitory concentration (IC50) was 0.26 nM in experiment [1]; 7100 nM in experiment [4]; 1000 nM in experiment [5]; 12 nM in experiment [3]; > 100000 nM in experiment [6].
For the compound `Fc1ccc(C2=CC3CCC(C2)N3CCCCc2cn(-c3ccc(F)cc3)c3ccccc23)cc1` (stereo not given), the IC50 in experiment [1] is 1200 nM; in experiment [4] it was 3700 nM; in experiment [7], 8000 nM; in experiment [5], 350 nM; in experiment [3], 2.5 nM; in experiment [6], > 10000 nM.
As for `Fc1ccc(N2CCN(CCCCc3cn(-c4ccc(F)cc4)c4ccccc34)CC2)cc1`, the IC50 in experiment [1] was 440 nM; in experiment [4], 250 nM; in experiment [7], 3000 nM; in experiment [5], 420 nM; in experiment [3] it was 7.5 nM; in experiment [6], > 10000 nM.
On to `Cc1ccc(S(=O)(=O)n2cc(CCCCN3CCC4(CC3)OCc3ccccc34)c3ccccc32)cc1`, for which the IC50 was 10 nM in experiment [1] and 0.17 nM in experiment [3]. The Ratio in experiment [2] was 59.
Regarding `OC(CCCN1CCN(c2ncc(F)cn2)CC1)c1ccc(F)cc1` (stereo not given) [BMY-14802], the IC50 in experiment [4] is 830 nM; in experiment [7], 8400 nM; in experiment [5], 1500 nM.
In the case of `CC(=O)n1cc(CCCCN2CCC3(CC2)OCc2ccccc23)c2ccccc21`, the IC50 in experiment [1] is 5.7 nM; in experiment [3], 0.21 nM. Also, the Ratio in experiment [2] amounted to 27.
For `Fc1ccc(N2CCN(CCCCc3c[nH]c4ccccc34)CC2)cc1`, the IC50 stood at 5.6 nM in experiment [1]; 14 nM in experiment [4]; 180 nM in experiment [7]; 12 nM in experiment [5]; 1.3 nM in experiment [3]; 37 nM in experiment [6].
For the compound `c1ccc2c(c1)COC21CCN(CCCCc2cn(-c3ccsc3)c3ccccc23)CC1`, the concentration for half-maximal inhibition (IC50) is 7 nM in experiment [1] and 0.25 nM in experiment [3]. Moreover, in experiment [2], the Ratio was 28.
In the case of `c1ccc(C2CCN(CCCCc3c[nH]c4ccccc34)CC2)cc1`, the 50% inhibitory concentration (IC50) in experiment [1] was 1.5 nM; in experiment [4] it was 25 nM; in experiment [7], 45 nM; in experiment [5], 14 nM; in experiment [3], 0.48 nM; in experiment [6], 110 nM.
`Fc1ccc(-n2cc(CCN3CCC4(CC3)OCc3ccccc34)c3ccccc32)cc1`: the values for the IC50 in experiment [1] and in experiment [3] were 15 nM and 3 nM, respectively. Moreover, in experiment [2], the Ratio turned out to be 5.
With `Fc1ccc(-n2cc(CCCN3CCC4(CC3)OCc3ccccc34)c3ccccc32)cc1`, the concentration for half-maximal inhibition (IC50) in experiment [1] worked out at 10 nM; in experiment [3], 2.8 nM. The Ratio in experiment [2] amounted to 3.6.
With `COc1ccccc1C1CCN(CCCCc2c[nH]c3ccccc23)CC1`, the 50% inhibitory concentration (IC50) was found to be 4.5 nM in experiment [1]; 83 nM in experiment [4]; 20 nM in experiment [7]; 11 nM in experiment [5]; 3.3 nM in experiment [3]; 56 nM in experiment [6].
For the compound `Fc1ccc(-n2cc(CCCCN3CCC4(CC3)OCc3ccccc34)c3ccccc32)cc1` [SIRAMESINE], the IC50 in experiment [4] was 2000 nM; in experiment [7], 800 nM; in experiment [6], 21000 nM; in experiment [8] it was 330 nM.
On to `c1ccc2c(c1)COC21CCN(CCCCc2c[nH]c3ccccc23)CC1`, for which the 50% inhibitory concentration (IC50) came to 2.5 nM in experiment [1]; 360 nM in experiment [4]; 1300 nM in experiment [7]; 30 nM in experiment [5]; 0.41 nM in experiment [3]; 130 nM in experiment [6].
With `Fc1ccc(C2CCN(CCCCc3cn(-c4ccc(F)cc4)c4ccccc34)CC2)cc1`, the IC50 in experiment [4] was 270 nM; in experiment [7], 4200 nM; in experiment [5], 220 nM; in experiment [3] it was 0.27 nM; in experiment [6], 22000 nM.
On to `CS(=O)(=O)n1cc(CCCCN2CCC3(CC2)OCc2ccccc23)c2ccccc21`, for which the concentration for half-maximal inhibition (IC50) was 1.3 nM in experiment [1] and 0.05 nM in experiment [3]. For the same compound, in experiment [2], the Ratio was 26.
Regarding `Fc1ccc(-n2cc(CN3CCC4(CC3)OCc3ccccc34)c3ccccc32)cc1`, the IC50 is 3 nM in experiment [1] and 4.7 nM in experiment [3]. For the same compound, the Ratio in experiment [2] came out at 0.64.
`Fc1ccc(C2CCN(CCCCc3c[nH]c4ccccc34)CC2)cc1`: the half-inhibitory concentration (IC50) in experiment [1] was 1.4 nM; in experiment [4] it was 34 nM; in experiment [7], 160 nM; in experiment [5], 20 nM; in experiment [3], 4 nM; in experiment [6] it was 27 nM.
Turning to `Fc1ccc(C2=CCN(CCCCc3c[nH]c4ccccc34)CC2)cc1`, the IC50 stood at 7.5 nM in experiment [1]; 27 nM in experiment [4]; 51 nM in experiment [7]; 24 nM in experiment [5]; 2.3 nM in experiment [3]; 71 nM in experiment [6].
For `Fc1ccc(-n2cc(CCCCN3CCN(c4ccccc4)CC3)c3ccccc32)cc1`, the IC50 was determined as 27 nM in experiment [1] and 0.69 nM in experiment [3]. The Ratio in experiment [2] was determined as 39.
For `COc1ccccc1N1CCN(CCCCc2c[nH]c3ccccc23)CC1`, the IC50 amounted to 14 nM in experiment [1]; 150 nM in experiment [4]; 15 nM in experiment [7]; 2.7 nM in experiment [5]; 21 nM in experiment [3].
Take `c1csc(-n2cc(CCCCN3CCC4(CC3)OCc3ccccc34)c3ccccc32)c1`: the figures for the half-maximal inhibitory concentration (IC50) in experiment [1] and in experiment [3] were 7.7 nM and 0.24 nM, respectively. For the same compound, the Ratio in experiment [2] was found to be 32.
The matching figures for `Fc1ccc(-n2cc(CCCCN3CCC(c4ccccc4)CC3)c3ccccc32)cc1`: 44 nM, 0.44 nM and 100.
